Data on 20 compounds can be found in BindingDB's records for doi:10.1021/jm060173k (Schering-Plough Research Institute, 2007).

One test deals with Genome polyprotein (Hepatitis C virus genotype 1a (isolate H77), UniProt P27958). Nature of the test: Continuous Spectrophotometric Assay.
Sequence of Genome polyprotein (P27958 1027-1657 limits assumed): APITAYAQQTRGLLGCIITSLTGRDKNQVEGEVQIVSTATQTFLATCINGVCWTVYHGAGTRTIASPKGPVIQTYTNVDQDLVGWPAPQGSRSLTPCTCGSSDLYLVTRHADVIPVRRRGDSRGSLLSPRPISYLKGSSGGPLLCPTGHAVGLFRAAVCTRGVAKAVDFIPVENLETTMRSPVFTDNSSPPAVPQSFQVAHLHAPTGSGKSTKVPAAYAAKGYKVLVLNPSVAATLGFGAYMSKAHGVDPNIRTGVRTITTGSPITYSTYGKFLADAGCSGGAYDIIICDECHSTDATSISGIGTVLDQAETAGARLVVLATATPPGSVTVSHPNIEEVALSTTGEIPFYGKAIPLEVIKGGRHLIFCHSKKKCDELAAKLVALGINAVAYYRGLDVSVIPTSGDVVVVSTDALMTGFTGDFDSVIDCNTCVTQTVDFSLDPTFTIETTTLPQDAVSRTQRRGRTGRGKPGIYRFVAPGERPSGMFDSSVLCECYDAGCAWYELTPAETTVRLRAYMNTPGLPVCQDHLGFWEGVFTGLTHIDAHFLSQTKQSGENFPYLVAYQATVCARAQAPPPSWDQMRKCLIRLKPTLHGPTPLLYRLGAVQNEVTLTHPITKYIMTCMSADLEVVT
Settings: not given
The method, then:
Proteolytic cleavage of the ester linkage between the Nva (L-norvaline) and the chromophore (PAP) was monitored for change in absorbance at 370 nm. Initial velocities were determined using linear regression and kinetic constants were obtained by fitting the data to the Michaelis-Menten equation.
One may read the Ki as the equilibrium dissociation constant of an inhibitor or competing ligand from its target. Lower therefore signals tighter binding. As for `CC(C)C(NC(=O)NC(C)(C)C)C(=O)N1C[C@H]2[C@@H](C1C(=O)NC(CC1CC1)C(=O)C(N)=O)C2(C)C` (stereo partly drawn) [3-{[(1R,5S)-3-{2-[(tert-butylcarbamoyl)amino]-3-methylbutanoyl}-6,6-dimethyl-3-azabicyclo[3.1.0]hexan-2-yl]formamido}-4-cyclopropyl-2-oxobutanamide], the affinity, expressed as Ki, was 100 nM. Still for that read-out and setting: the value for `CC(C)(C)NC(=O)NC(C(=O)N1C[C@H]2[C@@H](C1C(=O)NC(CC1CC1(F)F)C(=O)C(N)=O)C2(C)C)C(C)(C)C` (stereo partly drawn) [3-{[(1R,5S)-3-{2-[(tert-butylcarbamoyl)amino]-3,3-dimethylbutanoyl}-6,6-dimethyl-3-azabicyclo[3.1.0]hexan-2-yl]formamido}-4-(2,2-difluorocyclopropyl)-2-oxobutanamide] was 50 nM; that for `CC(C)(C)NC(=O)NC(C(=O)N1C[C@H]2[C@@H](C1C(=O)NC(CC1CCC1)C(=O)C(N)=O)C2(Cl)Cl)C(C)(C)C` (stereo partly drawn) [3-{[(1S,5R)-3-{2-[(tert-butylcarbamoyl)amino]-3,3-dimethylbutanoyl}-6,6-dichloro-3-azabicyclo[3.1.0]hexan-2-yl]formamido}-4-cyclobutyl-2-oxobutanamide] was 19 nM. Still for that read-out and setting: the value for `CC(C)(C)NC(=O)NC(C(=O)N1C[C@H]2[C@@H](C1C(=O)NC(CC1CCC1)C(=O)C(N)=O)C2(F)F)C(C)(C)C` (stereo partly drawn) [3-{[(1S,5R)-3-{2-[(tert-butylcarbamoyl)amino]-3,3-dimethylbutanoyl}-6,6-difluoro-3-azabicyclo[3.1.0]hexan-2-yl]formamido}-4-cyclobutyl-2-oxobutanamide] was 140 nM; that for `CC(C)CC(NC(=O)C(NC(=O)NC(C)(C)C)C(C)(C)C)C(=O)NC(CC1CCC1)C(=O)C(N)=O` (stereo not given) [2-{2-[(tert-butylcarbamoyl)amino]-3,3-dimethylbutanamido}-N-(1-carbamoyl-3-cyclobutyl-1-oxopropan-2-yl)-4-methylpentanamide] was 1000 nM; that for `CC(=O)NC(C(=O)NC(C(=O)N1C[C@H]2[C@@H](C1C(=O)NC(CC1CCC1)C(=O)C(N)=O)C2(C)C)C(C)(C)C)C(C)C` (stereo partly drawn) [N-{1-[(1R,5S)-2-[(1-carbamoyl-3-cyclobutyl-1-oxopropan-2-yl)carbamoyl]-6,6-dimethyl-3-azabicyclo[3.1.0]hexan-3-yl]-3,3-dimethyl-1-oxobutan-2-yl}-2-acetamido-3-methylbutanamide] was 38 nM. On the same count and under the same terms, with `CC(C)OC(=O)NC(C(=O)N1C[C@H]2[C@@H](C1C(=O)NC(CC1CC1)C(=O)C(N)=O)C2(C)C)C1CCCCC1` (stereo partly drawn) [propan-2-yl N-{2-[(1R,5S)-2-[(1-carbamoyl-3-cyclopropyl-1-oxopropan-2-yl)carbamoyl]-6,6-dimethyl-3-azabicyclo[3.1.0]hexan-3-yl]-1-cyclohexyl-2-oxoethyl}carbamate] the figure was 60 nM; with `COC(=O)NC(C(=O)N1C[C@H]2[C@@H](C1C(=O)NC(CC1CC1)C(=O)C(N)=O)C2(C)C)C1CCCCC1` (stereo partly drawn) [methyl N-{2-[(1R,5S)-2-[(1-carbamoyl-3-cyclopropyl-1-oxopropan-2-yl)carbamoyl]-6,6-dimethyl-3-azabicyclo[3.1.0]hexan-3-yl]-1-cyclohexyl-2-oxoethyl}carbamate], 800 nM; with `CC(C)(C)NC(=O)NC(C(=O)N1C[C@@H]2OC(C)(C)C[C@@H]2C1C(=O)NC(CC1CCC1)C(=O)C(N)=O)C(C)(C)C` (stereo partly drawn) [3-{[(3aR,6aR)-5-{2-[(tert-butylcarbamoyl)amino]-3,3-dimethylbutanoyl}-2,2-dimethyl-hexahydro-2H-furo[2,3-c]pyrrol-4-yl]formamido}-4-cyclobutyl-2-oxobutanamide], 500 nM.

Regarding `CC(C)(C)NC(=O)NC(C(=O)N1C[C@H]2[C@@H](C1C(=O)NC(CC1CC(F)(F)C1)C(=O)C(N)=O)C2(C)C)C(C)(C)C` (stereo partly drawn) [3-{[(1R,5S)-3-{2-[(tert-butylcarbamoyl)amino]-3,3-dimethylbutanoyl}-6,6-dimethyl-3-azabicyclo[3.1.0]hexan-2-yl]formamido}-4-(3,3-difluorocyclobutyl)-2-oxobutanamide], the Ki turned out to be 115 nM. As to `CCOC(=O)NC(C(=O)N1C[C@H]2[C@@H](C1C(=O)NC(CC1CC1)C(=O)C(N)=O)C2(C)C)C1CCCCC1` (stereo partly drawn) [ethyl N-{2-[(1R,5S)-2-[(1-carbamoyl-3-cyclopropyl-1-oxopropan-2-yl)carbamoyl]-6,6-dimethyl-3-azabicyclo[3.1.0]hexan-3-yl]-1-cyclohexyl-2-oxoethyl}carbamate], the affinity, expressed as Ki, was 230 nM. Same read-out and setting: with `CC(C)(C)NC(=O)NC(C(=O)N1C[C@@H]2OC(C)(C)[C@@H]2C1C(=O)NC(CC1CCC1)C(=O)C(N)=O)C(C)(C)C` (stereo partly drawn) [3-{[(1R,5R)-3-{2-[(tert-butylcarbamoyl)amino]-3,3-dimethylbutanoyl}-7,7-dimethyl-6-oxa-3-azabicyclo[3.2.0]heptan-2-yl]formamido}-4-cyclobutyl-2-oxobutanamide] the figure was 960 nM; with `CC(=O)NC(C(=O)NC(C(=O)N1C[C@H]2[C@@H](C1C(=O)NC(CC1CC1)C(=O)C(N)=O)C2(C)C)C1CCCCC1)C(C)C` (stereo partly drawn) [N-{2-[(1R,5S)-2-[(1-carbamoyl-3-cyclopropyl-1-oxopropan-2-yl)carbamoyl]-6,6-dimethyl-3-azabicyclo[3.1.0]hexan-3-yl]-1-cyclohexyl-2-oxoethyl}-2-acetamido-3-methylbutanamide], 68 nM.

Still in this test, the particulars now being: pH 6.5; 30 °C.
`CCCC(NC(=O)C1[C@@H]2[C@H](CN1C(=O)C(NC(=O)OC(C)(C)C)C(C)(C)C)C2(C)C)C(=O)C(N)=O` (stereo partly drawn) [tert-butyl N-{1-[(1R,5S)-2-[(1-carbamoyl-1-oxopentan-2-yl)carbamoyl]-6,6-dimethyl-3-azabicyclo[3.1.0]hexan-3-yl]-3,3-dimethyl-1-oxobutan-2-yl}carbamate] showed a Ki of 220 nM. On the same count and under the same terms, with `CC(C)CC(NC(=O)C1[C@@H]2[C@H](CN1C(=O)C(NC(=O)OC(C)(C)C)C(C)(C)C)C2(C)C)C(=O)C(N)=O` (stereo partly drawn) [tert-butyl N-{1-[(1R,5S)-2-[(1-carbamoyl-4-methyl-1-oxopentan-2-yl)carbamoyl]-6,6-dimethyl-3-azabicyclo[3.1.0]hexan-3-yl]-3,3-dimethyl-1-oxobutan-2-yl}carbamate] the figure was 480 nM; with `CC(C)(C)CC(NC(=O)C1[C@@H]2[C@H](CN1C(=O)C(NC(=O)OC(C)(C)C)C(C)(C)C)C2(C)C)C(=O)C(N)=O` (stereo partly drawn) [tert-butyl N-{1-[(1R,5S)-2-[(1-carbamoyl-4,4-dimethyl-1-oxopentan-2-yl)carbamoyl]-6,6-dimethyl-3-azabicyclo[3.1.0]hexan-3-yl]-3,3-dimethyl-1-oxobutan-2-yl}carbamate], over 3300 nM. With `CC(C)(C)OC(=O)NC(C(=O)N1C[C@H]2[C@@H](C1C(=O)NC(C(=O)C(N)=O)C(C)(C)C)C2(C)C)C(C)(C)C` (stereo partly drawn) [tert-butyl N-{1-[(1R,5S)-2-[(1-carbamoyl-3,3-dimethyl-1-oxobutan-2-yl)carbamoyl]-6,6-dimethyl-3-azabicyclo[3.1.0]hexan-3-yl]-3,3-dimethyl-1-oxobutan-2-yl}carbamate], the Ki was over 69000 nM. Still for that read-out and setting: with `CCCCC(NC(=O)C1[C@@H]2[C@H](CN1C(=O)C(NC(=O)OC(C)(C)C)C(C)(C)C)C2(C)C)C(=O)C(N)=O` (stereo partly drawn) [tert-butyl N-{1-[(1R,5S)-2-[(1-carbamoyl-1-oxohexan-2-yl)carbamoyl]-6,6-dimethyl-3-azabicyclo[3.1.0]hexan-3-yl]-3,3-dimethyl-1-oxobutan-2-yl}carbamate] the figure was 360 nM; with `CCCC(NC(=O)C1[C@@H]2[C@H](CN1C(=O)C(NC(=O)NC(C)(C)C)C1CCCCC1)C2(C)C)C(=O)C(N)=O` (stereo partly drawn) [3-{[(1R,5S)-3-{2-[(tert-butylcarbamoyl)amino]-2-cyclohexylacetyl}-6,6-dimethyl-3-azabicyclo[3.1.0]hexan-2-yl]formamido}-2-oxohexanamide], 54 nM; with `CC(C)(C)NC(=O)NC(C(=O)N1C[C@H]2[C@@H](C1C(=O)NC(C(=O)C(N)=O)C1CCC1)C2(C)C)C(C)(C)C` (stereo partly drawn) [3-{[(1R,5S)-3-{2-[(tert-butylcarbamoyl)amino]-3,3-dimethylbutanoyl}-6,6-dimethyl-3-azabicyclo[3.1.0]hexan-2-yl]formamido}-3-cyclobutyl-2-oxopropanamide], 100 nM.
